In ChEMBL document CHEMBL3046848, “Synthesis and biological evaluation of novel series of thieno[2,3-d]pyrimidine derivatives as anticancer and antimicrobial agents” (2013):
≈ marks a conversion by molar mass, not a printed value.

Key:
Assay type in all cases: functional
Escherichia coli [1] = assay: Antimicrobial activity against Escherichia coli ATCC8739 assessed as growth inhibition after 48 hr by two-fold serial dilution method; conditions: ATCC8739, 48 h
Escherichia coli [2] = assay: Antimicrobial activity against Escherichia coli ATCC8739 assessed as diameter of growth inhibition zone at 1 mg/ml after 24 hr by agar cup diffusion method; conditions: ATCC8739, 24 h, read-out: IZ
Pseudomonas aeruginosa [3] = assay: Antimicrobial activity against Pseudomonas aeruginosa ATCC9027 assessed as diameter of growth inhibition zone at 1 mg/ml after 24 hr by agar cup diffusion method; conditions: ATCC9027, 24 h, read-out: IZ
Candida albicans [4] = assay: Antimicrobial activity against Candida albicans ATCC2091 assessed as diameter of growth inhibition zone at 1 mg/ml after 48 hr by agar cup diffusion method; conditions: ATCC2091, 48 h, read-out: IZ
Staphylococcus aureus [5] = assay: Antimicrobial activity against Staphylococcus aureus ATCC6538P assessed as diameter of growth inhibition zone at 1 mg/ml after 24 hr by agar cup diffusion method; conditions: read-out: IZ
Pseudomonas aeruginosa [6] = assay: Antimicrobial activity against Pseudomonas aeruginosa ATCC9027 assessed as growth inhibition after 48 hr by two-fold serial dilution method; conditions: ATCC9027, 48 h
Staphylococcus aureus [7] = assay: Antimicrobial activity against Staphylococcus aureus ATCC6538P assessed as growth inhibition after 48 hr by two-fold serial dilution method
TK-10 = assay: Growth inhibition of Homo sapiens (human) TK10 cells at 10 uM after 48 hr by SRB assay; conditions: TK-10, 48 h, read-out: GI
SK-MEL-2 = assay: Growth inhibition of Homo sapiens (human) SK-MEL-2 cells at 10 uM after 48 hr by SRB assay; conditions: SK-MEL-2, 48 h, read-out: GI
IGROV-1 = assay: Growth inhibition of Homo sapiens (human) IGROV1 cells at 10 uM after 48 hr by SRB assay; conditions: IGROV-1, 48 h, read-out: GI
SF-295 = assay: Growth inhibition of Homo sapiens (human) SF295 cells at 10 uM after 48 hr by SRB assay; conditions: SF-295, 48 h, read-out: GI
Candida albicans [8] = assay: Antimicrobial activity against Candida albicans ATCC2091 assessed as growth inhibition after 48 hr by two-fold serial dilution method; conditions: ATCC2091, 48 h

Row | SMILES | MIC (Escherichia coli [1]) | zone of inhibition at 1000 µg/mL (Escherichia coli [2]) | zone of inhibition at 1000 µg/mL (Pseudomonas aeruginosa [3]) | zone of inhibition at 1000 µg/mL (Candida albicans [4]) | zone of inhibition at 1000 µg/mL (Staphylococcus aureus [5]) | MIC (Pseudomonas aeruginosa [6]) | MIC (Staphylococcus aureus [7]) | inhibition of growth at 10 µM (TK-10) | inhibition of growth at 10 µM (SK-MEL-2) | inhibition of growth at 10 µM (IGROV-1) | inhibition of growth at 10 µM (SF-295) | MIC (Candida albicans [8])
1 | CCCn1cnc2sc(C(N)=O)c(C)c2c1=O | 125 µg/mL (≈ 497 µM) | 17 mm | 12 mm | 15 mm | 10 mm |  |  |  |  |  |  | 
2 | Cc1c(C(N)=O)sc2ncn(-c3ccccn3)c(=O)c12 |  | 13 mm | 12 mm | 15 mm | 10 mm |  |  |  |  |  |  | 
3 | Cc1c(C(N)=O)sc2nc(SCc3ccccc3)n(-c3ccccc3)c(=O)c12 |  | 15 mm | 12 mm | 15 mm | 10 mm |  |  |  |  |  |  | 
4 | Cc1c(C(N)=O)sc2nc(S(C)(=O)=O)n(-c3ccccc3)c(=O)c12 |  | 16 mm | 12 mm | 15 mm | 11 mm |  |  |  |  |  |  | 
5 | CCS(=O)(=O)c1nc2sc(C(N)=O)c(C)c2c(=O)n1-c1ccccc1 |  | 13 mm | 12 mm | 15 mm | 10 mm |  |  |  |  |  |  | 
6 | Cc1c(C(N)=O)sc2nc(S(=O)(=O)Cc3ccccc3)n(-c3ccccc3)c(=O)c12 |  | 15 mm | 12 mm | 15 mm | 10 mm |  |  |  |  |  |  | 
7 | Cc1c(C(N)=O)sc2nc(SCC3CO3)n(-c3ccccc3)c(=O)c12 (stereo not drawn) |  | 15 mm | 17 mm | 15 mm | 10 mm | 125 µg/mL (≈ 335 µM) |  |  |  |  |  | 
8 | Cc1c(C(N)=O)sc2nc(SCC(O)CN3CCOCC3)n(-c3ccccc3)c(=O)c12 (stereo not drawn) |  | 13 mm | 12 mm | 15 mm | 10 mm |  |  |  |  |  |  | 
9 | Cc1c(C(N)=O)sc2nc(SCC(O)CN3CCCCC3)n(-c3ccccc3)c(=O)c12 (stereo not drawn) |  | 15 mm | 12 mm | 15 mm | 10 mm |  |  |  |  |  |  | 
10 | Cc1c(C(N)=O)sc2nc(C)n(NC(=S)NCc3ccccc3)c(=O)c12 |  | 13 mm | 12 mm | 15 mm | 12 mm |  |  |  |  |  |  | 
11 | Cc1c(C(N)=O)sc2nc(C)n(/N=c3\scc(-c4ccc(Cl)cc4)n3-c3ccccc3)c(=O)c12 | 125 µg/mL (≈ 246 µM) | 16 mm | 12 mm | 15 mm | 10 mm |  |  |  |  |  |  | 
12 | Cc1c(C(N)=O)sc2nc(C)n(/N=c3\scc(-c4ccc(Br)cc4)n3-c3ccccc3)c(=O)c12 |  | 15 mm | 12 mm | 15 mm | 10 mm |  |  |  |  |  |  | 
13 | Cc1c(C(N)=O)sc2nc(C)n(/N=c3\scc(-c4ccc(Cl)cc4)n3Cc3ccccc3)c(=O)c12 |  | 15 mm | 17 mm | 15 mm | 10 mm | 125 µg/mL (≈ 239 µM) |  |  |  |  |  | 
14 | Cc1c(C(N)=O)sc2nc(C)n(/N=c3\scc(-c4ccc(Br)cc4)n3Cc3ccccc3)c(=O)c12 |  | 15 mm | 12 mm | 15 mm | 11 mm |  |  |  |  |  |  | 
15 | Cc1c(C(N)=O)sc2nc(C)n(/N=C3\SCC(=O)N3c3ccccc3)c(=O)c12 |  | 15 mm | 12 mm | 16 mm | 14 mm |  | 250 µg/mL (≈ 605 µM) |  |  |  |  | 
16 | Cc1c(C(N)=O)sc2nc(C)n(/N=C3\SCC(=O)N3Cc3ccccc3)c(=O)c12 |  | 15 mm | 12 mm | 16 mm | 14 mm |  | 250 µg/mL (≈ 585 µM) |  |  |  |  | 
17 | Cc1c(C(N)=O)sc2nc(S)n(-c3ccccc3)c(=O)c12 |  | 15 mm | 12 mm | 15 mm | 12 mm |  |  |  |  |  |  | 

Row | SMILES | MIC (Escherichia coli [1]) | zone of inhibition at 1000 µg/mL (Escherichia coli [2]) | zone of inhibition at 1000 µg/mL (Pseudomonas aeruginosa [3]) | zone of inhibition at 1000 µg/mL (Candida albicans [4]) | zone of inhibition at 1000 µg/mL (Staphylococcus aureus [5]) | MIC (Pseudomonas aeruginosa [6]) | MIC (Staphylococcus aureus [7]) | inhibition of growth at 10 µM (TK-10) | inhibition of growth at 10 µM (SK-MEL-2) | inhibition of growth at 10 µM (IGROV-1) | inhibition of growth at 10 µM (SF-295) | MIC (Candida albicans [8])
18 | Cc1c(C(N)=O)sc2nc(SCC(=O)Nc3ccccc3)n(-c3ccccc3)c(=O)c12 |  | 15 mm | 12 mm | 15 mm | 10 mm |  |  |  |  |  |  | 
19 | Cc1c(C(N)=O)sc2nc(SCC(=O)Nc3ccc(Cl)cc3)n(-c3ccccc3)c(=O)c12 |  | 15 mm | 12 mm | 15 mm | 10 mm |  |  | 47.2% | 116% | 79.4% |  | 
20 | Cc1ccc(NC(=O)CSc2nc3sc(C(N)=O)c(C)c3c(=O)n2-c2ccccc2)cc1 |  | 15 mm | 12 mm | 15 mm | 10 mm |  |  |  |  |  |  | 
21 | CC(=O)CSc1nc2sc(C(N)=O)c(C)c2c(=O)n1-c1ccccc1 |  | 15 mm | 12 mm | 15 mm | 13 mm |  | 250 µg/mL (≈ 669 µM) |  |  |  |  | 
22 | CCOC(=O)CSc1nc2sc(C(N)=O)c(C)c2c(=O)n1-c1ccccc1 |  | 13 mm | 12 mm | 15 mm | 10 mm |  |  |  |  |  |  | 
23 | CSc1nc2sc(C(N)=O)c(C)c2c(=O)n1-c1ccccc1 |  | 13 mm | 12 mm | 15 mm | 10 mm |  |  |  |  |  |  | 
24 | CCSc1nc2sc(C(N)=O)c(C)c2c(=O)n1-c1ccccc1 |  | 16 mm | 12 mm | 15 mm | 10 mm |  |  |  |  |  |  | 
25 | Cc1c(C(N)=O)sc2nc[nH]c(=O)c12 |  | 13 mm | 12 mm | 15 mm | 10 mm |  |  |  |  |  |  | 
26 | Cc1c(C(N)=O)sc2ncn(Cc3ccccc3)c(=O)c12 |  | 15 mm | 16 mm | 15 mm | 10 mm |  |  |  |  |  |  | 
27 | Cc1c(C(N)=O)sc2ncn(CCO)c(=O)c12 |  | 15 mm | 17 mm | 15 mm | 10 mm | 125 µg/mL (≈ 494 µM) |  | 97.1% |  |  | 43.8% | 
28 | Cc1c(C(N)=O)sc2ncn(C3CCCCC3)c(=O)c12 | 125 µg/mL (≈ 429 µM) | 17 mm | 12 mm | 15 mm | 10 mm |  |  |  |  |  |  | 
29 | CCOC(=O)c1c(NC(C)=O)sc(C(N)=O)c1C | 125 µg/mL (≈ 462 µM) | 16 mm | 12 mm | 15 mm | 10 mm |  |  |  |  |  |  | 
30 | Cc1c(C(N)=O)sc2nc(C)n(N)c(=O)c12 |  | 15 mm | 17 mm | 15 mm | 10 mm | 125 µg/mL (≈ 525 µM) |  |  |  |  |  | 
31 | Cc1c(C(N)=O)sc2nc(C)n(NC(=S)Nc3ccccc3)c(=O)c12 |  | 15 mm | 12 mm | 15 mm | 10 mm |  |  |  |  |  |  | 
32 | CC1(C)S[C@@H]2[C@H](NC(=O)[C@H](N)c3ccccc3)C(=O)N2[C@H]1C(=O)O [AMPICILLIN] | 7.81 µg/mL (≈ 22.4 µM) | 26 mm | 18 mm |  | 30 mm | 125 µg/mL (≈ 358 µM) | 3.91 µg/mL (≈ 11.2 µM) |  |  |  |  | 
33 | Clc1ccccc1C(c1ccccc1)(c1ccccc1)n1ccnc1 [CLOTRIMAZOLE] |  |  |  | 28 mm |  |  |  |  |  |  |  | 7.81 µg/mL (≈ 22.6 µM)
